Source: patent publication US10906915B2, “Substituted pyrazoloazepin-4-ones and their use as phosphodiesterase inhibitors” (LEO Pharma A/S, priority 2016, dated 2021)

molecular target: human PDE4D catalytic domain (UniProt no. Q08499) (Homo sapiens (Human), UniProt Q08499); experiment: PDE4 assay (TR-FRET, FAM-cAMP cleavage); format: biochemical; conditions: human PDE4D catalytic domain; molar concentration giving 50% inhibition of substrate cleavage; read-out: PDE4 IC50 range
How it was run: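 Read-out is time-resolved FRET from Tb donor to FAM-AMP captured on trivalent-metal nanoparticles added to stop the reaction. Substrate was a mix of plain and FAM-labelled cAMP, cleaved by human PDE4D catalytic domain ([…]) with titrated compound; IC50 ranges (nM) versus controls.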

human PDE4D catalytic domain, sequence (Q08499 380-740 limits assumed): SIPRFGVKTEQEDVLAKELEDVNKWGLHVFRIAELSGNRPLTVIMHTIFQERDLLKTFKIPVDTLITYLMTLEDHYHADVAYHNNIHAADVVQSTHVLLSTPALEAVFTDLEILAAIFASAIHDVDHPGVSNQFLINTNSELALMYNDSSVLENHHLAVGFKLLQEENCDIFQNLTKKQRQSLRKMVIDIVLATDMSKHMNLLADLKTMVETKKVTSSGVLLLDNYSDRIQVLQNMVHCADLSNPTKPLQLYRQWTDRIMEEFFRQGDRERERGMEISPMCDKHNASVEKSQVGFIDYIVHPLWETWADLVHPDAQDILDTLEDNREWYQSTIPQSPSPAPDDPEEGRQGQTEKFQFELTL

`CCc1nn(CCCOC(=O)c2c(F)cccc2F)c2c1C(=O)NCC1(CCOCC1)C2` [Example 46, 3-(3-ethyl-4-oxo-spiro[6,8-dihydro-5H-pyrazolo[4,3-c]azepine-7,4′-tetrahydropyran]-1-yl)propyl 2,6-difluorobenzoate] and `CCc1nn(CCCOC(=O)c2cc(F)ccc2C)c2c1C(=O)NCC1(CCOCC1)C2` [Example 34, 3-(3-ethyl-4-oxo-spiro[6,8-dihydro-5H-pyrazolo[4,3-c]azepine-7,4′-tetrahydropyran]-1-yl)propyl 5-fluoro-2-methyl-benzoate] cannot be ordered by IC50: < 100 nM for the first, < 100 nM for the second.

`CCc1nn(C[C@@H](C)COC(=O)c2cccc(C(C)=O)c2)c2c1C(=O)NCC1(CCOCC1)C2` [Example 181, [(2R)-3-(3-ethyl-4-oxo-spiro[6,8-dihydro-5H-pyrazolo[4,3-c]azepine-7,4′-tetrahydropyran]-1-yl)-2-methyl-propyl] 3-acetylbenzoate] and `CCc1nn(CCCOC(=O)c2cccc(C(N)=O)c2)c2c1C(=O)NCC1(CCOCC1)C2` [Example 150, 3-(3-ethyl-4-oxo-spiro[6,8-dihydro-5H-pyrazolo[4,3-c]azepine-7,4′-tetrahydropyran]-1-yl)propyl 3-carbamoylbenzoate] cannot be ordered by IC50: < 100 nM for the first, < 100 nM for the second.

`CCc1nn(CCCOC(=O)c2ccc(OC)c(C(F)(F)F)c2)c2c1C(=O)NCC1(CCOCC1)C2` [Example 118, 3-(3-ethyl-4-oxo-spiro[6,8-dihydro-5H-pyrazolo[4,3-c]azepine-7,4′-tetrahydropyran]-1-yl)propyI 4-methoxy-3-(trifluoromethyl)benzoate] and `CCc1nn(CCCOC(=O)c2ccc(C(F)(F)F)c(Cl)c2)c2c1C(=O)NCC1(CCOCC1)C2` [Example 125, 3-(3-ethyl-4-oxo-spiro[6,8-dihydro-5H-pyrazolo[4,3-c]azepine-7,4′-tetrahydropyran]-1-yl)propyl 3-chloro-4-(trifluoromethyl)benzoate] cannot be ordered by IC50: < 100 nM for the first, < 100 nM for the second.

`CCc1nn(C[C@@H](C)COC(=O)c2cc(C(F)(F)F)ccc2Cl)c2c1C(=O)NCC1(CCOCC1)C2` [Example 241, [(2R)-3-(3-ethyl-4-oxo-spiro[6,8-dihydro-5H-pyrazolo[4,3-c]azepine-7,4′-tetrahydropyran]-1-yl)-2-methyl-propyl] 2-chloro-5-(trifluoromethyl)benzoate] and `CCc1nn(CCCOC(=O)c2ccc(C(F)(F)F)c(F)c2)c2c1C(=O)NCC1(CCOCC1)C2` [Example 110, 3-(3-ethyl-4-oxo-spiro[6,8-dihydro-5H-pyrazolo[4,3-c]azepine-7,4′-tetrahydropyran]-1-yl)propyl 3-fluoro-4-(trifluoromethyl)benzoate] cannot be ordered by IC50: < 100 nM for the first, < 100 nM for the second.

For `CCc1nn(CCCOC(=O)[C@H]2CC[C@@H](O)CC2)c2c1C(=O)NCC1(CCOCC1)C2` [Example 21, 3-(3-ethyl-4-oxo-spiro[6,8-dihydro-5H-pyrazolo[4,3-c]azepine-7,4′-tetrahydropyran]-1-yl)propyl cis-4-hydroxycyclohexane-carboxylate], the IC50 was 100 to 500 nM.

same assay, conditions: read-out: PDE4 IC50 range

`CCc1nn(CC(C)(C)COC(=O)c2ccc(S(=O)(=O)N(C)C)cc2)c2c1C(=O)NCC1(CCOCC1)C2` [Example 318, [3-(3-ethyl-4-oxo-spiro[6,8-dihydro-5H-pyrazolo[4,3-c]azepine-7,4′-tetrahydropyran]-1-yl)-2,2-dimethyl-propyl] 4-(dimethylsulfamoyl)benzoate] and `CCc1nn(CC2(COC(=O)c3ccc(C)cc3)COC2)c2c1C(=O)NCC1(CCOCC1)C2` [Example 357, [3-[(3-ethyl-4-oxo-spiro[6,8-dihydro-5H-pyrazolo[4,3-c]azepine-7,4′-tetrahydropyran]-1-yl)methyl]oxetan-3-yl]methyl 4-methylbenzoate] cannot be ordered by IC50: < 100 nM for the first, < 100 nM for the second.

In the case of `CCc1nn(CC2(COC(=O)c3ccccc3)COC2)c2c1C(=O)NCC1(CCOCC1)C2` [Example 356, [3-[(3-ethyl-4-oxo-spiro[6,8-dihydro-5H-pyrazolo[4,3-c]azepine-7,4′-tetrahydropyran]-1-yl)methyl]oxetan-3-yl]methyl benzoate], the IC50 is reported as < 100 nM.
